Assay: Analytical results and impurity profile of batches of Form A and Form B of lurbinectedin
Assay type: physicochemical
Parameters: Impurity RRT approx. 1.10-1.11 / Impurity RRT approx. 1.12 / Impurity RRT approx. 1.27-1.34 / Impurity RRT approx. 1.29-1.30 / Impurity RRT approx. 1.30-1.32 / Impurity RRT approx. 1.28-1.37 / Impurity RRT approx. 2.37 / Impurity RRT approx. 2.41-2.52 / Impurity RRT approx. 2.85 / Impurity RRT approx. 0.66-0.69 / Impurity RRT approx. 0.72-0.76: unit not given here
Settings: for Impurity RRT aprox 0.72-0.76 / Impurity RRT aprox 0.66-0.69 / Impurity RRT aprox 1.10-1.11: batches of Form B
Text: Several batches of Form A of lurbinectedin were manufactured by this method.
Several batches of Form B of lurbinectedin were manufactured by this method.

[1] = batches of Form B of lurbinectedin
[2] = impurity profile, batches of Form A
[3] = batches of Form A of lurbinectedin

SMILES	Residual Solvents Acetonitrile [1]	Residual Solvents CH2Cl2 [1]	Residual Solvents Methanol [1]	Residual Solvents Pentane [1]	Residual Solvents Total [1]	Total Impurities [1]	Water Content [1]	Impurity RRT aprox 0.72-0.76 (impurity profile)	Impurity RRT approx. 0.72-0.76 [2]	Impurity RRT approx. 1.10-1.11 [2]	Impurity RRT approx. 1.30-1.32 [2]	Impurity RRT approx. 1.29-1.30 [2]	also measured
COc1ccc2[nH]c3c(c2c1)CCN[C@]31CS[C@@H]2c3c(OC(C)=O)c(C)c4c(c3[C@H](COC1=O)N1[C@@H]2[C@H]2c3c(cc(C)c(OC)c3O)C[C@@H]([C@@H]1O)N2C)OCO4 [Batch 1711182-2]	<LOQ	<LOQ	<LOQ	<LOQ	0.0 % w/w	0.3 % Area	2.4 % w/w	0.34 % area	–	–	–	–	–
COc1ccc2[nH]c3c(c2c1)CCN[C@]31CS[C@@H]2c3c(OC(C)=O)c(C)c4c(c3[C@H](COC1=O)N1[C@@H]2[C@H]2c3c(cc(C)c(OC)c3O)C[C@@H]([C@@H]1O)N2C)OCO4 [Batch 1711189-2]	<LOQ	<LOQ	<LOQ	<LOQ	0.0 % w/w	0.3 % Area	2.5 % w/w	0.30 % area	–	–	–	–	Impurity RRT aprox 0.66-0.69 (impurity profile): 0.05 % area
COc1ccc2[nH]c3c(c2c1)CCN[C@]31CS[C@@H]2c3c(OC(C)=O)c(C)c4c(c3[C@H](COC1=O)N1[C@@H]2[C@H]2c3c(cc(C)c(OC)c3O)C[C@@H]([C@@H]1O)N2C)OCO4 [Batch 1799069]	<LOQ	<LOQ	<LOQ	<LOQ	0.0 % w/w	0.4 % Area	2.0 % w/w	0.31 % area	–	–	–	–	Impurity RRT aprox 1.10-1.11 (impurity profile): 0.06 % area
COc1ccc2[nH]c3c(c2c1)CCN[C@]31CS[C@@H]2c3c(OC(C)=O)c(C)c4c(c3[C@H](COC1=O)N1[C@@H]2[C@H]2c3c(cc(C)c(OC)c3O)C[C@@H]([C@@H]1O)N2C)OCO4 [Batch F02]	–	–	–	–	–	–	–	–	0.06	0.17	0.09	–	Impurity RRT approx. 0.66-0.69 [2]: 0.19; Impurity RRT approx. 1.27-1.34 [2]: 0.12; Impurity RRT approx. 2.41-2.52 [2]: 0.07; Impurity RRT approx. 2.85 [2]: 0.07
COc1ccc2[nH]c3c(c2c1)CCN[C@]31CS[C@@H]2c3c(OC(C)=O)c(C)c4c(c3[C@H](COC1=O)N1[C@@H]2[C@H]2c3c(cc(C)c(OC)c3O)C[C@@H]([C@@H]1O)N2C)OCO4 [Batch G01]	–	–	–	–	–	–	–	–	0.11	0.50	0.13	–	Impurity RRT approx. 0.66-0.69 [2]: 0.06
COc1ccc2[nH]c3c(c2c1)CCN[C@]31CS[C@@H]2c3c(OC(C)=O)c(C)c4c(c3[C@H](COC1=O)N1[C@@H]2[C@H]2c3c(cc(C)c(OC)c3O)C[C@@H]([C@@H]1O)N2C)OCO4 [Batch K02]	–	–	–	–	–	–	–	–	0.09	0.13	0.19	0.07	–
COc1ccc2[nH]c3c(c2c1)CCN[C@]31CS[C@@H]2c3c(OC(C)=O)c(C)c4c(c3[C@H](COC1=O)N1[C@@H]2[C@H]2c3c(cc(C)c(OC)c3O)C[C@@H]([C@@H]1O)N2C)OCO4 [Batch K03]	–	–	–	–	–	–	–	–	0.07	0.17	0.08	0.37	–
COc1ccc2[nH]c3c(c2c1)CCN[C@]31CS[C@@H]2c3c(OC(C)=O)c(C)c4c(c3[C@H](COC1=O)N1[C@@H]2[C@H]2c3c(cc(C)c(OC)c3O)C[C@@H]([C@@H]1O)N2C)OCO4 [Batch K04]	–	–	–	–	–	–	–	–	–	0.20	0.08	0.11	–
COc1ccc2[nH]c3c(c2c1)CCN[C@]31CS[C@@H]2c3c(OC(C)=O)c(C)c4c(c3[C@H](COC1=O)N1[C@@H]2[C@H]2c3c(cc(C)c(OC)c3O)C[C@@H]([C@@H]1O)N2C)OCO4 [Batch M01]	–	–	–	–	–	–	–	–	0.10	0.08	0.18	0.10	–
COc1ccc2[nH]c3c(c2c1)CCN[C@]31CS[C@@H]2c3c(OC(C)=O)c(C)c4c(c3[C@H](COC1=O)N1[C@@H]2[C@H]2c3c(cc(C)c(OC)c3O)C[C@@H]([C@@H]1O)N2C)OCO4 [Batch M02]	–	–	–	–	–	–	–	–	0.08	0.10	0.08	0.17	Impurity RRT approx. 1.28-1.37 [2]: 0.08
COc1ccc2[nH]c3c(c2c1)CCN[C@]31CS[C@@H]2c3c(OC(C)=O)c(C)c4c(c3[C@H](COC1=O)N1[C@@H]2[C@H]2c3c(cc(C)c(OC)c3O)C[C@@H]([C@@H]1O)N2C)OCO4 [Batch M03]	–	–	–	–	–	–	–	–	0.12	0.11	0.11	0.10	–
COc1ccc2[nH]c3c(c2c1)CCN[C@]31CS[C@@H]2c3c(OC(C)=O)c(C)c4c(c3[C@H](COC1=O)N1[C@@H]2[C@H]2c3c(cc(C)c(OC)c3O)C[C@@H]([C@@H]1O)N2C)OCO4 [Batch P01]	–	–	–	–	–	–	–	–	–	0.15	–	0.09	Impurities Total [3]: 0.3 % Area; Residual Solvents Acetonitrile [3]: 0.01 % w/w; Residual Solvents Dichloro-methane [3]: <LOQ; Residual Solvents Ethyl acetate [3]: <LOQ; Residual Solvents Hexane [3]: <LOQ; Residual Solvents Methanol [3]: 1.1 % w/w; Residual Solvents Pentane [3]: 0.2 % w/w; Residual Solvents Total [3]: 1.4 % w/w; Water Content [3]: 0.9 % w/w
COc1ccc2[nH]c3c(c2c1)CCN[C@]31CS[C@@H]2c3c(OC(C)=O)c(C)c4c(c3[C@H](COC1=O)N1[C@@H]2[C@H]2c3c(cc(C)c(OC)c3O)C[C@@H]([C@@H]1O)N2C)OCO4 [Batch P02]	–	–	–	–	–	–	–	–	–	0.09	0.13	0.06	Impurities Total [3]: 0.4 % Area; Residual Solvents Acetonitrile [3]: <LOQ; Residual Solvents Dichloro-methane [3]: <LOQ; Residual Solvents Ethyl acetate [3]: <LOQ; Residual Solvents Hexane [3]: 0.01 % w/w; Residual Solvents Methanol [3]: 1.7 % w/w; Residual Solvents Pentane [3]: 0.2 % w/w; Residual Solvents Total [3]: 1.9 % w/w; Water Content [3]: 1.2 % w/w
COc1ccc2[nH]c3c(c2c1)CCN[C@]31CS[C@@H]2c3c(OC(C)=O)c(C)c4c(c3[C@H](COC1=O)N1[C@@H]2[C@H]2c3c(cc(C)c(OC)c3O)C[C@@H]([C@@H]1O)N2C)OCO4 [Batch P03]	–	–	–	–	–	–	–	–	–	–	–	0.09	Impurities Total [3]: 0.3 % Area; Residual Solvents Acetonitrile [3]: <LOQ; Residual Solvents Dichloro-methane [3]: 0.01 % w/w; Residual Solvents Ethyl acetate [3]: <LOQ; Residual Solvents Hexane [3]: <LOQ; Residual Solvents Methanol [3]: 1.6 % w/w; Residual Solvents Pentane [3]: 0.3 % w/w; Residual Solvents Total [3]: 1.9 % w/w; Water Content [3]: 1.6 % w/w; Impurity RRT approx. 1.12 [2]: 0.07
COc1ccc2[nH]c3c(c2c1)CCN[C@]31CS[C@@H]2c3c(OC(C)=O)c(C)c4c(c3[C@H](COC1=O)N1[C@@H]2[C@H]2c3c(cc(C)c(OC)c3O)C[C@@H]([C@@H]1O)N2C)OCO4 [Batch P05]	<LOQ	<LOQ	<LOQ	<LOQ	0.0 % w/w	0.3 % Area	2.1 % w/w	0.24 % area	–	–	–	–	Residual Solvents AcOEt [1]: <LOQ; Residual Solvents Hexane [1]: <LOQ; Impurity RRT aprox 1.10-1.11 (impurity profile): 0.07 % area
COc1ccc2[nH]c3c(c2c1)CCN[C@]31CS[C@@H]2c3c(OC(C)=O)c(C)c4c(c3[C@H](COC1=O)N1[C@@H]2[C@H]2c3c(cc(C)c(OC)c3O)C[C@@H]([C@@H]1O)N2C)OCO4 [Batch R01]	<LOQ	<LOQ	<LOQ	<LOQ	0.0 % w/w	0.3 % Area	1.9 % w/w	0.22 % area	–	–	–	–	Residual Solvents AcOEt [1]: <LOQ; Residual Solvents Hexane [1]: <LOQ; Impurity RRT aprox 1.10-1.11 (impurity profile): 0.09 % area
COc1ccc2[nH]c3c(c2c1)CCN[C@]31CS[C@@H]2c3c(OC(C)=O)c(C)c4c(c3[C@H](COC1=O)N1[C@@H]2[C@H]2c3c(cc(C)c(OC)c3O)C[C@@H]([C@@H]1O)N2C)OCO4 [Batch R02]	<LOQ	<LOQ	–	<LOQ	0.0 % w/w	0.3 % Area	2.0 % w/w	0.28 % area	–	–	–	–	–
COc1ccc2[nH]c3c(c2c1)CCN[C@]31CS[C@@H]2c3c(OC(C)=O)c(C)c4c(c3[C@H](COC1=O)N1[C@@H]2[C@H]2c3c(cc(C)c(OC)c3O)C[C@@H]([C@@H]1O)N2C)OCO4 [Batch R03]	<LOQ	<LOQ	<LOQ	<LOQ	0.0 % w/w	0.3 % Area	1.7 % w/w	0.22 % area	–	–	–	–	Impurity RRT aprox 0.66-0.69 (impurity profile): 0.05 % area
COc1ccc2[nH]c3c(c2c1)CCN[C@]31CS[C@@H]2c3c(OC(C)=O)c(C)c4c(c3[C@H](COC1=O)N1[C@@H]2[C@H]2c3c(cc(C)c(OC)c3O)C[C@@H]([C@@H]1O)N2C)OCO4 [Batch R04]	<LOQ	<LOQ	<LOQ	<LOQ	0.0 % w/w	0.4 % Area	2.6 % w/w	0.26 % area	–	–	–	–	Impurity RRT aprox 0.66-0.69 (impurity profile): 0.05 % area; Impurity RRT aprox 1.10-1.11 (impurity profile): 0.07 % area
